Results published in ChEMBL document CHEMBL4038335, “Neuroactive Steroids. 2. 3α-Hydroxy-3β-methyl-21-(4-cyano-1H-pyrazol-1'-yl)-19-nor-5β-pregnan-20-one (SAGE-217): A Clinical Next Generation Neuroactive Steroid Positive Allosteric Modulator of the (γ-Aminobutyric Acid)A Receptor” (J Med Chem, 2017).
Values after ≈ are worked out from the molar mass of the structure shown.

What was measured:
[1] = molecular target: Glycine receptor subunit alpha-1 (Homo sapiens) (UniProt P23415); assay: Binding affinity to human glycine alpha 1 receptor expressed in HEK293 cells at 10 uM by IonFlux based assay; type: cell-based
[2] = Clearance in Beagle dog at 5 mg/kg, iv or 20 mg/kg, po measured up to 8 hrs post dose by LC/MS-MS analysis; type: ADME, organism-based, Canis lupus familiaris; details: in vivo
[3] = molecular target: Gamma-aminobutyric acid receptor subunit alpha-4/beta3/delta (Homo sapiens, UniProt O14764+P28472+P48169); assay: Positive allosteric modulation of GABAA receptor alpha4beta3delta (unknown origin) expressed in CHO cells assessed as potentiation of GABA-mediated increase in channel current under holding potential at -80 mV preincubated for 30 secs followed by GABA stimulation for 2 secs by manual patch clamp assay; type: cell-based
Gamma-aminobutyric acid receptor subunit alpha-4/beta3/delta, sequence (P28472 whole entry): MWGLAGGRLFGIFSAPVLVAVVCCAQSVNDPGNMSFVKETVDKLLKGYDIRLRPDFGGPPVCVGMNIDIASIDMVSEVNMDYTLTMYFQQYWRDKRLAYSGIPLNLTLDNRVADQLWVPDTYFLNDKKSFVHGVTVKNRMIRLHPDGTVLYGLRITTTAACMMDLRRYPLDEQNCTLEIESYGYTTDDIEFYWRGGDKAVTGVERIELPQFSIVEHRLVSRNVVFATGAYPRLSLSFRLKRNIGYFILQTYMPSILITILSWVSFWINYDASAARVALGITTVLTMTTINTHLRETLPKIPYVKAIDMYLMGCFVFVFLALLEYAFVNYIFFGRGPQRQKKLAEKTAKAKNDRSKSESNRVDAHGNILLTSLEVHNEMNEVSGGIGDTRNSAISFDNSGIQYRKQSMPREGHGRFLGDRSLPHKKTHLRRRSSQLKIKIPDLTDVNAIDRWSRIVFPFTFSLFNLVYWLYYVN
Gamma-aminobutyric acid receptor subunit alpha-4/beta3/delta, sequence (P48169 whole entry): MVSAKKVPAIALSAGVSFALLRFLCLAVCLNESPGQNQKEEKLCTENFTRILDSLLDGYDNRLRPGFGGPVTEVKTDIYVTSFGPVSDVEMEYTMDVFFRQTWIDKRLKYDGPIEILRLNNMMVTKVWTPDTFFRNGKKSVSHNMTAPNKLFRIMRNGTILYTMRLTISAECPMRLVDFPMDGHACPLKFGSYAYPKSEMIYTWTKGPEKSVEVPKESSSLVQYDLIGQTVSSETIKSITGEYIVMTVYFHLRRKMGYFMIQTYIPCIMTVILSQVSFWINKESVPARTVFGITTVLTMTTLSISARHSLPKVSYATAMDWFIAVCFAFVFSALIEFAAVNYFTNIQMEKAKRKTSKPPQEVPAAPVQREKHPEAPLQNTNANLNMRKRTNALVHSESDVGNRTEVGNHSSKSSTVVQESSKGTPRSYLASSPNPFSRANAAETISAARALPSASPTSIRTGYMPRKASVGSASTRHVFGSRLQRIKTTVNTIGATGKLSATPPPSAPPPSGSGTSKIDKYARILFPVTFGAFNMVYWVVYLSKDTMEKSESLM
Gamma-aminobutyric acid receptor subunit alpha-4/beta3/delta, sequence (O14764 whole entry): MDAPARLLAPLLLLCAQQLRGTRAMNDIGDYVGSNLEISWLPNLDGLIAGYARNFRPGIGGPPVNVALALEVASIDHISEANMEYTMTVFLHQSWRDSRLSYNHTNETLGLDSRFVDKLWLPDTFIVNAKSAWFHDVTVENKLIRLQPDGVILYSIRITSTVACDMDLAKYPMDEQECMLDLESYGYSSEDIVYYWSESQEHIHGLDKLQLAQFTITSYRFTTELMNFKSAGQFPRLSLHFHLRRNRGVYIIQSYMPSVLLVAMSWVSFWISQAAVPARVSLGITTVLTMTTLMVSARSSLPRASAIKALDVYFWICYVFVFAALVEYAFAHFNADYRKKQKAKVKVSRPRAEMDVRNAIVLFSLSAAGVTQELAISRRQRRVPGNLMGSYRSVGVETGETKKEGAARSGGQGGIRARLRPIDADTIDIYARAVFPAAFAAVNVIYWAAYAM

[4] = Clearance in dog hepatic microsomes at 10 uM preincubated for 5 mins followed by NADPH addition measured over 60 mins by HPLC-MS/MS analysis; type: ADME, Canis lupus familiaris, Liver, Microsome; details: 1 h
[5] = Protein binding in dog plasma at 10 uM after 6 hrs by equilibrium dialysis; type: ADME, cell-free, Canis lupus familiaris; details: read-out: PPB (converted)
[6] = molecular target: Voltage-gated potassium channel, IKs; KCNQ1(Kv7.1)/KCNE1(MinK) (Homo sapiens, UniProt P15382+P51787); assay: Inhibition of KCNQ1/minK (unknown origin) by patch clamp assay
[7] = molecular target: Sigma non-opioid intracellular receptor 1 (Homo sapiens) (UniProt Q99720); assay: Displacement of [3H](+)pentazocine from human sigma1-receptor at 10 uM after 120 mins by scintillation counting
[8] = Displacement of [35S]TBPS from GABA-A receptor in Sprague-Dawley rat cerebral cortex cell membranes after 90 mins in presence of GABA by liquid scintillation counting
[9] = Clearance in mouse hepatic microsomes at 10 uM preincubated for 5 mins followed by NADPH addition measured over 60 mins by HPLC-MS/MS analysis; type: ADME, Microsome; details: liver microsomes
[10] = Ratio of drug level in Sprague-Dawley rat brain to plasma at 5 mg/kg, iv measured at 30 mins post dose by LC/MS-MS analysis; type: ADME, organism-based; details: read-out: BPR
[11] = molecular target: Voltage-dependent L-type calcium channel subunit alpha-1C (Homo sapiens, UniProt Q13936); assay: Inhibition of Cav1.2 (unknown origin) by patch clamp assay
[12] = molecular target: Kv channel-interacting protein 2/Potassium voltage-gated channel subfamily D member 3 (Homo sapiens, UniProt Q9NS61+Q9UK17); assay: Inhibition of Kv4.3(unknown origin)/KChIP2.2 (unknown origin) by patch clamp assay
[13] = Protein binding in mouse plasma at 10 uM after 6 hrs by equilibrium dialysis; type: ADME, cell-free; details: read-out: PPB
[14] = molecular target: Inward rectifier potassium channel 2 (Homo sapiens, UniProt P63252); assay: Inhibition of Kir2.1 (unknown origin) by patch clamp assay
[15] = molecular target: GABA-A receptor alpha-4/beta-3/delta (Homo sapiens, UniProt P28472+P48169+); assay: Positive allosteric modulation of GABAA receptor alpha4beta3delta (unknown origin) expressed in CHO cells assessed as potentiation of GABA-mediated increase in channel current under holding potential at -80 mV at 0.01 to 10 uM preincubated for 30 secs followed by GABA stimulation for 2 secs by manual patch clamp assay relative to GABA; type: cell-based; details: 2 s
GABA-A receptor alpha-4/beta-3/delta, sequence (P28472 whole entry): as the sequence (P28472 whole entry) above
GABA-A receptor alpha-4/beta-3/delta, sequence (P48169 whole entry): as the sequence (P48169 whole entry) above
GABA-A receptor alpha-4/beta-3/delta, sequence (Q06278 whole entry, further chain): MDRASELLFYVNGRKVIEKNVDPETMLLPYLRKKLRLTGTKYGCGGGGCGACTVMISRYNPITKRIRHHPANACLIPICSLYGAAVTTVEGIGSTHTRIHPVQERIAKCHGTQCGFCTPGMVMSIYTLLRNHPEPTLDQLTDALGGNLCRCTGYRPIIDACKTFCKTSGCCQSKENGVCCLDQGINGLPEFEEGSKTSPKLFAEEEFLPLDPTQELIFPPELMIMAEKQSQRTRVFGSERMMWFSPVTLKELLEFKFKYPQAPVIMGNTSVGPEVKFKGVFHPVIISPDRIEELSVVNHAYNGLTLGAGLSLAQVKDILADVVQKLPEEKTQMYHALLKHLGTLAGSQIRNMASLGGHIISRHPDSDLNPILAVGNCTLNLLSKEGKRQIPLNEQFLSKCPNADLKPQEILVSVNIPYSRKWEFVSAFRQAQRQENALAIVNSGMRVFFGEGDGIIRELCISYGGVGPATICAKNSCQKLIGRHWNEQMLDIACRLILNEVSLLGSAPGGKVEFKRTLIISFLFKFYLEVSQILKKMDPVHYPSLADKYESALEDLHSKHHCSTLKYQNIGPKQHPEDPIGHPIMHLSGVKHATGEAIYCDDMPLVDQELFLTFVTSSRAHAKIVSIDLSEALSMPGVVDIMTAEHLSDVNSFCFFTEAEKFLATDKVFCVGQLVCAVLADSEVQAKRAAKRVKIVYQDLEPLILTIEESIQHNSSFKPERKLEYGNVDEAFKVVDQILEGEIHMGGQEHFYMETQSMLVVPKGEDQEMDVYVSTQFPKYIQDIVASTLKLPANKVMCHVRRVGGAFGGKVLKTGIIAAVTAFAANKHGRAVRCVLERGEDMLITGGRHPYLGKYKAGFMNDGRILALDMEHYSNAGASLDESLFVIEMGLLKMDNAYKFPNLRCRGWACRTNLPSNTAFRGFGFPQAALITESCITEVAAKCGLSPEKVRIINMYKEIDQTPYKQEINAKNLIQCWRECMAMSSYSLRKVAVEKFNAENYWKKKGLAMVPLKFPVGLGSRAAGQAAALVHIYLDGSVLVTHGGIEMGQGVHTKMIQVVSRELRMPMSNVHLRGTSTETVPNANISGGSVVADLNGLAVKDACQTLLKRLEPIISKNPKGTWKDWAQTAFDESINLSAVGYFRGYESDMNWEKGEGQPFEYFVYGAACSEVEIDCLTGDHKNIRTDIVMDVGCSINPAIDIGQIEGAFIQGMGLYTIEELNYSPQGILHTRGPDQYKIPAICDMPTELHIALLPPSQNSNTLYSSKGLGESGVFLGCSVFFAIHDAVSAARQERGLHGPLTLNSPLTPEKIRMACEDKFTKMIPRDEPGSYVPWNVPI

Cytochrome P450 2D6 = Cytochrome P450 2D6 (Homo sapiens, UniProt P10635); assay: Inhibition of CYP2D6 (unknown origin); type: ADME
Cytochrome P450 2D6, sequence (P10635 whole entry): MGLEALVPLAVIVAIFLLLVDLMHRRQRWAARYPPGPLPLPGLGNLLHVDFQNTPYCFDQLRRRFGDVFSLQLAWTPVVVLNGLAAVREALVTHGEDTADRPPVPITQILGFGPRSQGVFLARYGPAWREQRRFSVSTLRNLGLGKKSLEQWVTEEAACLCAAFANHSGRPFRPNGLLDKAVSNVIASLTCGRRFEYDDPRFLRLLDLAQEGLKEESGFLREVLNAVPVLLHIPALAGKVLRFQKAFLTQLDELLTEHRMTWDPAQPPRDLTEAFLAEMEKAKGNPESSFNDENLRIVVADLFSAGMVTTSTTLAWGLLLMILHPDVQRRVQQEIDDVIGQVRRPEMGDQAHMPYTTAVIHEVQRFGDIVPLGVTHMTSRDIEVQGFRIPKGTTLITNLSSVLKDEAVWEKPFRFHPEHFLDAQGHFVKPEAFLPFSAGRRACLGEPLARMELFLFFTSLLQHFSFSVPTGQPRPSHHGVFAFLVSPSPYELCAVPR

[16] = Oral bioavailability in CD1 mouse at 20 mg/kg measured up to 8 hrs post dose by LC/MS-MS analysis; type: ADME, organism-based; details: in vivo
[17] = Thermodynamic aqueous solubility of compound at 10 uM sonicated for 1 min followed by incubation for 1 hr by HPLC-MS/MS; type: physicochemical; details: buffer; read-out: Therm_solubility
Cytochrome P450 1A2 = Cytochrome P450 1A2 (Homo sapiens, UniProt P05177); assay: Inhibition of CYP1A2 (unknown origin); type: ADME
[18] = molecular target: Potassium voltage-gated channel subfamily A member 5 (Homo sapiens, UniProt P22460); assay: Inhibition of Kv1.5 (unknown origin) by patch clamp assay
[19] = Protein binding in rat plasma at 10 uM after 6 hrs by equilibrium dialysis; type: ADME, cell-free; details: read-out: PPB (converted)
[20] = Clearance in rat hepatocytes at 10 uM preincubated for 5 mins […] measured over 60 mins by HPLC-MS/MS analysis; type: ADME, cell-based, Hepatocyte; details: 1 h
Cytochrome P450 2C9 = Cytochrome P450 2C9 (Homo sapiens, UniProt P11712); assay: Inhibition of CYP2C9 (unknown origin); type: ADME
[21] = molecular target: Transient receptor potential cation channel subfamily V member 1 (Homo sapiens) (UniProt Q8NER1); assay: Antagonist activity at human TRPV1 expressed in CHOK1 cells assessed as inhibition of capsaicin-induced Ca2+ flux at 10 uM by spectrophotometric analysis; type: cell-based
[22] = molecular target: Sodium channel protein type 5 subunit alpha (Homo sapiens, UniProt Q14524); assay: Inhibition of Nav1.5 (unknown origin) by patch clamp assay
[23] = molecular target: GABA-A receptor; alpha-1/beta-2/gamma-2 (Homo sapiens) (UniProt P14867+P47870+P18507); assay: Positive allosteric modulation of GABAA receptor alpha1beta2gamma2 (unknown origin) expressed in mouse LTK cells assessed as potentiation of GABA-mediated increase in channel current under holding potential at -80 mV at 0.01 to 10 uM preincubated for 30 secs followed by GABA stimulation for 2 secs by automated patch clamp assay relative to GABA; type: cell-based
Canis familiaris = assay: Clearance in Beagle dog at 5 mg/kg, iv or 20 mg/kg, po measured up to 8 hrs post dose by LC/MS-MS analysis relative to hepatic blood flow; type: ADME, organism-based, Canis lupus familiaris; details: in vivo
[24] = Clearance in human hepatocytes at 10 uM preincubated for 5 mins […] measured over 60 mins by HPLC-MS/MS analysis; type: ADME, cell-based, Hepatocyte; details: 1 h
[25] = Clearance in mouse hepatocytes at 10 uM preincubated for 5 mins […] measured over 60 mins by HPLC-MS/MS analysis; type: ADME, cell-based, Hepatocyte; details: read-out: CLH (converted)
[26] = Clearance in human hepatic microsomes at 10 uM preincubated for 5 mins followed by NADPH addition measured over 60 mins by HPLC-MS/MS analysis; type: ADME, Microsome; details: liver microsomes
Cytochrome P450 2C19 = Cytochrome P450 2C19 (Homo sapiens, UniProt P33261); assay: Inhibition of CYP2C19 (unknown origin); type: ADME
[27] = Oral bioavailability in Sprague-Dawley rat at 20 mg/kg measured up to 8 hrs post dose by LC/MS-MS analysis; type: ADME, organism-based; details: in vivo
[28] = Lipophilicity, logD of compound at 20 uM at pH 7.4 by HPLC/MS-MS analysis; type: physicochemical; details: buffer
[29] = Clearance in dog hepatocytes at 10 uM preincubated for 5 mins […] measured over 60 mins by HPLC-MS/MS analysis; type: ADME, cell-based, Canis lupus familiaris, Hepatocyte; details: 1 h
Cytochrome P450 3A4 = Cytochrome P450 3A4 (Homo sapiens, UniProt P08684); assay: Inhibition of CYP3A4 (unknown origin); type: ADME
Cytochrome P450 3A4, sequence (P08684 whole entry): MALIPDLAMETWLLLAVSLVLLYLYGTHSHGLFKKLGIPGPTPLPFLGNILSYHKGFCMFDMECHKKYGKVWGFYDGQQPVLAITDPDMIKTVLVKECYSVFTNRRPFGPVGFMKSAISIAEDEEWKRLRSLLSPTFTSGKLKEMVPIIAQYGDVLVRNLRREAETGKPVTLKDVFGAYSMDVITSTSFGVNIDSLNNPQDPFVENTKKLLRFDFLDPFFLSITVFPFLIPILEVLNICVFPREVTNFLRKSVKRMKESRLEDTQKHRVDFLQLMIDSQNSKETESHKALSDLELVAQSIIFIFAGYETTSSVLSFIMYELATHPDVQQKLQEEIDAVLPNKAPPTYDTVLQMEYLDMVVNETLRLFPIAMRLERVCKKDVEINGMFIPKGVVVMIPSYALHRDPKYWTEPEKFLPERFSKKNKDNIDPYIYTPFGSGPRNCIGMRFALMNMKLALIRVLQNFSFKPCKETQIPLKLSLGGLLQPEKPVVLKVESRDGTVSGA

[30] = molecular target: Potassium/sodium hyperpolarization-activated cyclic nucleotide-gated channel 2 (Homo sapiens, UniProt Q9UL51); assay: Inhibition of HCN2 (unknown origin) by patch clamp assay
[31] = molecular target: Voltage-gated inwardly rectifying potassium channel KCNH2 (Homo sapiens, UniProt Q12809); assay: Inhibition of human ERG by patch clamp assay
Voltage-gated inwardly rectifying potassium channel KCNH2, sequence (Q12809 whole entry): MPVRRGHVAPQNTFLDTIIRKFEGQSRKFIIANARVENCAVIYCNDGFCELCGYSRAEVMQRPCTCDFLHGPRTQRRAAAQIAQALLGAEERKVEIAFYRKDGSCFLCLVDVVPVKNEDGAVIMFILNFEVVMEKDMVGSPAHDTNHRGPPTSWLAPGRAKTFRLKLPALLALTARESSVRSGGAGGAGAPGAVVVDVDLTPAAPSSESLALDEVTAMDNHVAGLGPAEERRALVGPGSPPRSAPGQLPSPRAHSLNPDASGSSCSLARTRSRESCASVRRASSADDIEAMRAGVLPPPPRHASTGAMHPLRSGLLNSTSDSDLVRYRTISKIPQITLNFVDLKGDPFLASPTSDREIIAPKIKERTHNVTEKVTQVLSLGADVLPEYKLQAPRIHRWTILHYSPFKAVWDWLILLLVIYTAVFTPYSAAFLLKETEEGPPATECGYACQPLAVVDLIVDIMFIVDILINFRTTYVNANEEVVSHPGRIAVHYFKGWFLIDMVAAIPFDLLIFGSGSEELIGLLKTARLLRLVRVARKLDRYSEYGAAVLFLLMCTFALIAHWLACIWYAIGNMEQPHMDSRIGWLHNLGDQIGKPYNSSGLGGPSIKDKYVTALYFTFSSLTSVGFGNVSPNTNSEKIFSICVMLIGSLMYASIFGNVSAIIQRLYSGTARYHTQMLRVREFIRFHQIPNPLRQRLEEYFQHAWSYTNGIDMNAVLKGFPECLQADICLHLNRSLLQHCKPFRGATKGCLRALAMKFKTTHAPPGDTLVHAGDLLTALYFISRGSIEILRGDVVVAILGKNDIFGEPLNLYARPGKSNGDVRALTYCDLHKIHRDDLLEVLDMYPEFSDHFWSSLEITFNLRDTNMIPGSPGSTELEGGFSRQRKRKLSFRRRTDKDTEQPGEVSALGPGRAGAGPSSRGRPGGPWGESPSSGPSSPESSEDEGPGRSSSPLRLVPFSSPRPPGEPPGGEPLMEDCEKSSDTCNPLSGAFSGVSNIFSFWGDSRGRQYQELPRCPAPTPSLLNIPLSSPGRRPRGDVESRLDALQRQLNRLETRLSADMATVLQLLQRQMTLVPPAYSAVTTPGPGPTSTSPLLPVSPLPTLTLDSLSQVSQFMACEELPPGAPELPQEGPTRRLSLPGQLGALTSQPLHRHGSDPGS

Cytochrome P450 2B6 = Cytochrome P450 2B6 (Homo sapiens, UniProt P20813); assay: Inhibition of CYP2B6 (unknown origin); type: ADME
[32] = Protein binding in human plasma at 10 uM after 6 hrs by equilibrium dialysis; type: ADME, cell-free; details: read-out: PPB (converted)
[33] = Clearance in rat hepatic microsomes at 10 uM preincubated for 5 mins followed by NADPH addition measured over 60 mins by HPLC-MS/MS analysis; type: ADME, Microsome; details: liver microsomes
Mus musculus = assay: Anticonvulsant activity in PTZ-induced seizure mouse model at 0.3 to 3 mg/kg, ip; type: functional
[34] = Clearance in Sprague-Dawley rat at 5 mg/kg, iv or 20 mg/kg, po measured up to 8 hrs post dose by LC/MS-MS analysis; type: ADME, organism-based; details: in vivo
[35] = Clearance in CD1 mouse at 5 mg/kg, iv or 20 mg/kg, po measured up to 8 hrs post dose by LC/MS-MS analysis; type: ADME, organism-based; details: in vivo
[36] = Oral bioavailability in Beagle dog at 20 mg/kg measured up to 8 hrs post dose by LC/MS-MS analysis; type: ADME, organism-based, Canis lupus familiaris; details: in vivo

C[C@@]1(O)CC[C@H]2[C@H](CC[C@@H]3[C@@H]2CC[C@]2(C)[C@@H](C(=O)Cn4cc(C#N)cn4)CC[C@@H]32)C1 [ZURANOLONE] gave an Activity [1] of 57%, a clearance [2] of 1.67 mL/min/kg and an EC50 [3] of 0.299 µM. It also gave a CLH [4] of 10 mL/min/kg, a fraction unbound at 6 h, 10 µM [5] of 0.016 and an IC50 [6] of over 30 µM. It also gave an inhibition [7] of 88%, an IC50 [8] of 0.007 µM and a CLhep predicted at 10 µM [9] of 70 mL/min/kg. For the same molecule, the Kp at 0.5 h [10] was 4.2, the IC50 [11] was over 30 µM and the IC50 [12] was over 30 µM. For the same molecule, the fraction unbound at 6 h, 10 µM [13] was 0.01, the IC50 [14] was over 30 µM and the Emax [15] was 574%. It also gave an IC50 (Cytochrome P450 2D6) of over 30 µM, a bioavailability [16] of 62% and a solubility thermodynamic at 1 h, 10 µM [17] of 2 µM (≈ 0.819 µg/mL). For the same molecule, the IC50 (Cytochrome P450 1A2) was over 30 µM, the IC50 [18] was over 30 µM and the fraction unbound at 6 h, 10 µM [19] was 0.012. It also gave a CLH [20] of 17 mL/min/kg, an IC50 (Cytochrome P450 2C9) of over 30 µM and an inhibition [21] of 95%. It also gave an IC50 [22] of over 30 µM, an Emax [23] of 473% and a CL (Canis familiaris) of under 10%. For the same molecule, the CLH [24] was 15 mL/min/kg, the CLint scaled at 10 µM [25] was 102 mL/min/kg and the CLhep predicted at 10 µM [26] was 3.33 mL/min/kg. It also gave an IC50 (Cytochrome P450 2C19) of over 30 µM, a bioavailability [27] of 32% and a logD at 20 µM [28] of 4.6. For the same molecule, the CLH [29] was 10 mL/min/kg, the IC50 (Cytochrome P450 3A4) was over 30 µM and the IC50 [30] was over 30 µM. It also gave an IC50 [31] of over 30 µM, an IC50 (Cytochrome P450 2B6) of over 30 µM and a fraction unbound at 6 h, 10 µM [32] of 0.012. It also gave a CLhep predicted at 10 µM [33] of 36.7 mL/min/kg, an MEC (Mus musculus) of 85 nM and a clearance [34] of 23.3 mL/min/kg. For the same molecule, the clearance [35] was 25 mL/min/kg and the bioavailability [36] was 68%.
